Measured values taken from patent publication US9480261B1, “Insecticidal strain of Serratia for control of brown marmorated stink bug (BMSB), Halyomorpha halys” (priority 2014, dated 2016).

What was measured:
Test in all cases: Antibiotic susceptibility, disk method on L-agar; on Antibiotic resistance of strain ATCC 13880: key: R—Resistant; I—Intermediate; S—Susceptible; on Antibiotic resistance of strain BF1: key: R—Resistant; I—Intermediate; S—Susceptible; on Antibiotic resistance of strain NRRL B-50575: key: R—Resistant; I—Intermediate; S—Susceptible; on Antibiotic resistance of strain TBSB-08: key: R—Resistant; I—Intermediate; S—Susceptible; on Antibiotic resistance of strain TBSB-09: key: R—Resistant; I—Intermediate; S—Susceptible
NRRL B-50575 = format: cell-based, Serratia; settings: for Antibiotic resistance of strain NRRL B-50575: disk method, L-agar, 25° C.; for resistance to antibiotics of NRRL B-50575 (in words): list of identifying characteristics
Protocol: (§1) Antibiotic Susceptibility: Two agar plates were streaked for growth with NRRL B-50575, and 8 paper discs, each soaked in a different antibiotic, were placed on the agar, with 4 discs on each plate. Disks containing the following antibiotics were used/obtained from Remel (Lenexa Kans.): ampicillin (10 μg), chloramphenicol (30 μg), erythromycin (30 μg), kanamycin (30 μg), neomycin (30 μg), tetracycline (30 μg), triple sulfa (300 μg) and vancomycin (30 μg). The plates were incubated for 24 hours at 25° C., and after this incubation period the zone of inhibition around each disc was measured.
(§2) The diffusible pink pigment (FIG. 4) produced by NRRL B-50575 (TP 07) was different from the red pigment of BF1 and ATCC 13880 (ATCC-SM), and the pigment was made at temperatures below 25° C. Antibiotic susceptibility was determined using the disk method per manufacturer's instructions on L-agar, incubated at 25° C. (Table 6). All of the pink bacterial strains had the similar antibiotic resistance. They differed in sensitivity to tetracycline, kanamycin, and chloramphenicol. They also differed from BF1 and ATCC 13880 in sensitivity to erythromycin.

ATCC 13880 = format: cell-based, Serratia marcescens; settings: 25° C.
Protocol: as §1, §2

Serratia marcesans BF1 = format: cell-based, Serratia marcescens; settings: 25° C.
Protocol: as §1, §2

TBSB-08 = format: cell-based; settings: 25° C.
Protocol: as §1, §2

TBSB-09 = format: cell-based; settings: 25° C.
Protocol: as §1, §2

| Compound | Antibiotic resistance of strain NRRL B-50575 (NRRL B-50575) | resistance to antibiotics of NRRL B-50575 (in words) (NRRL B-50575) | Antibiotic resistance of strain ATCC 13880 (ATCC 13880) | Antibiotic resistance of strain BF1 (Serratia marcesans BF1) | Antibiotic resistance of strain TBSB-08 (TBSB-08) | Antibiotic resistance of strain TBSB-09 (TBSB-09) |
| --- | --- | --- | --- | --- | --- | --- |
| CC1(C)S[C@@H]2[C@H](NC(=O)[C@H](N)c3ccccc3)C(=O)N2[C@H]1C(=O)O [Ampicillin, ampicillin] | R | resistant | R | R | R | R |
| O=C(N[C@H](CO)[C@H](O)c1ccc([N+](=O)[O-])cc1)C(Cl)Cl [Chloramphenicol, chloramphenicol] | I | intermediate | I | S | I | S |
| CC[C@H]1OC(=O)[C@H](C)[C@@H](O[C@H]2C[C@@](C)(OC)[C@@H](O)[C@H](C)O2)[C@H](C)[C@@H](O[C@@H]2O[C@H](C)C[C@H](N(C)C)[C@H]2O)[C@](C)(O)C[C@@H](C)C(=O)[C@H](C)[C@@H](O)[C@]1(C)O [Erythromycin, erythromycin] | R | resistant | I | I | R | R |
| NC[C@H]1O[C@H](O[C@H]2[C@H](O)[C@@H](O[C@H]3O[C@H](CO)[C@@H](O)[C@H](N)[C@H]3O)[C@H](N)C[C@@H]2N)[C@H](O)[C@@H](O)[C@@H]1O [Kanamycin, kanamycin] | S | – | S | S | I | S |
| CN(C)[C@@H]1C(O)=C(C(N)=O)C(=O)[C@@]2(O)C(O)=C3C(=O)c4c(O)cccc4[C@@](C)(O)[C@H]3C[C@@H]12 [Tetracycline, tetracycline] | I | – | R | R | I | R |
| CN[C@H](CC(C)C)C(=O)N[C@H]1C(=O)N[C@@H](CC(N)=O)C(=O)N[C@H]2C(=O)N[C@H]3C(=O)N[C@H](C(=O)N[C@H](C(=O)O)c4cc(O)cc(O)c4-c4cc3ccc4O)[C@H](O)c3ccc(c(Cl)c3)Oc3cc2cc(c3O[C@@H]2O[C@H](CO)[C@@H](O)[C@H](O)[C@H]2O[C@H]2C[C@](C)(N)[C@H](O)[C@H](C)O2)Oc2ccc(cc2Cl)[C@H]1O [Vancomycin, vancomycin] | R | resistant | R | R | R | R |
| neomycin | S | susceptible | S | S | S | S |
